{
  "source": "ChEMBL document CHEMBL5247625",
  "about": "“Discovery and characterization of novel potent BCR-ABL degraders by conjugating allosteric inhibitor” (Eur J Med Chem, 2022)",
  "target": "Bcr/Abl fusion protein (Homo sapiens) (UniProt P00519+P11274)",
  "sequence (P00519 whole entry, looked up, the tested form may be a part)": "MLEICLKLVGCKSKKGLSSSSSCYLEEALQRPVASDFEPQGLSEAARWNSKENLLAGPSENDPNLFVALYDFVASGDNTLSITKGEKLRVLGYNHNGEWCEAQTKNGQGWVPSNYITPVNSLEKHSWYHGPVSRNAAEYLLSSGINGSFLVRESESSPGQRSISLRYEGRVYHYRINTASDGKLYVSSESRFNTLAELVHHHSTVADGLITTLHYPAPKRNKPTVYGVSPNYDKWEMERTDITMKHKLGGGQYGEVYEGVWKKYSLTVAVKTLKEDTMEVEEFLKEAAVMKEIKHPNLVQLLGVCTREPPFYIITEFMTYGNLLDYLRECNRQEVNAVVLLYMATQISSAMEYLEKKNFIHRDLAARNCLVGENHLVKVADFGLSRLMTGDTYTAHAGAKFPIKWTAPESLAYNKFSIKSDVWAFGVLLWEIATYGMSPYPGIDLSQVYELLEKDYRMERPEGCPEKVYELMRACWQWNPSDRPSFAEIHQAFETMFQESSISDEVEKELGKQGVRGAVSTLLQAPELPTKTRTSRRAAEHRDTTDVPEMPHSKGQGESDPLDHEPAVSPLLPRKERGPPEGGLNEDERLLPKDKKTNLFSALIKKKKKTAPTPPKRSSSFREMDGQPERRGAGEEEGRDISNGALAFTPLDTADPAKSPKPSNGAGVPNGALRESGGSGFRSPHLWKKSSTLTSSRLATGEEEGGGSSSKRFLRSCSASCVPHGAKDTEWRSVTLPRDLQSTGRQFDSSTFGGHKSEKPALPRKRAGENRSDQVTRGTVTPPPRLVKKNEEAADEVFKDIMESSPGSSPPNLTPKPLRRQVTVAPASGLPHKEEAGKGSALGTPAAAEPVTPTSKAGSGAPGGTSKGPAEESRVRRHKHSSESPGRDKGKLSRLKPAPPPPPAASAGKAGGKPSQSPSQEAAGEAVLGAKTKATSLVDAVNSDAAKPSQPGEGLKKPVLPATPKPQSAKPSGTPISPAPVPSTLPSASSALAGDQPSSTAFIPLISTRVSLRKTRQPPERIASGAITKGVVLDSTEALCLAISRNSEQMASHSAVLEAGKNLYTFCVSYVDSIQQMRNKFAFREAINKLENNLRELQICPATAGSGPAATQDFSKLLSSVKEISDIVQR",
  "sequence (P11274 whole entry, looked up, the tested form may be a part)": "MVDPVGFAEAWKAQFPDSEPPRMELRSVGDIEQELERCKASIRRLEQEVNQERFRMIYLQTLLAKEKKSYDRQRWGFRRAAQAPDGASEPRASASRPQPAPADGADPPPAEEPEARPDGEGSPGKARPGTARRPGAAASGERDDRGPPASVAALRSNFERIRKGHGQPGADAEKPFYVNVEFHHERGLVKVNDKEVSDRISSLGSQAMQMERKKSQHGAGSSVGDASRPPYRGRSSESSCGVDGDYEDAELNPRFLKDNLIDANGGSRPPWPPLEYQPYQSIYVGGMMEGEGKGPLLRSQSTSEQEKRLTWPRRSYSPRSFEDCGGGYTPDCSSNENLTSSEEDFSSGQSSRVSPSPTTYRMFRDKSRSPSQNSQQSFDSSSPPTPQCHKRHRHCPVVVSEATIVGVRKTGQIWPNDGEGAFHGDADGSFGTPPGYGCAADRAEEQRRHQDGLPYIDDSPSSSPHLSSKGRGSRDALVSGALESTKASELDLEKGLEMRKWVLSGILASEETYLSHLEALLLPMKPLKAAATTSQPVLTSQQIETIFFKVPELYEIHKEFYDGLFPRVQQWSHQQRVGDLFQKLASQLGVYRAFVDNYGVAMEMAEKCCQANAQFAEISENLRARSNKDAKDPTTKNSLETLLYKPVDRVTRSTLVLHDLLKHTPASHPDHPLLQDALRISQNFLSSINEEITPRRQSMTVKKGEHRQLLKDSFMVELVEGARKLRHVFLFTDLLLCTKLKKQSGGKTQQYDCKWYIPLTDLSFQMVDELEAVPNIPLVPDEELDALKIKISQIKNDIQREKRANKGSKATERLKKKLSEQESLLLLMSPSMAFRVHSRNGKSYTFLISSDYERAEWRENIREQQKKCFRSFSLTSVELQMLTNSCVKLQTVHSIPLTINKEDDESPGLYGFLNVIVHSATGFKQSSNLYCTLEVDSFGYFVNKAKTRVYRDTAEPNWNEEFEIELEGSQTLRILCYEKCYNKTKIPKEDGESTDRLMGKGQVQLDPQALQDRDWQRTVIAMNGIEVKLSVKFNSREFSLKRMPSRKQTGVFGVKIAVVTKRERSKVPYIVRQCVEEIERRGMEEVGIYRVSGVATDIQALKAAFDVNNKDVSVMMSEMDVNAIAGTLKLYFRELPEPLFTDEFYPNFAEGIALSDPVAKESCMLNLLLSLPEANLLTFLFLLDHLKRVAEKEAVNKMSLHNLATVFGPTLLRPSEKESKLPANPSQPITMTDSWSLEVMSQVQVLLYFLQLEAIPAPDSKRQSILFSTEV",
  "experiment": "Inhibition of BCR-ABL phosphorylation at Tyr245 residue in human K562 cells at 0.3 to 100 nM incubated for 16 hrs by Western blotting analysis",
  "format": "cell-based",
  "conditions": "dose 0.3-100 nM",
  "note": "Active and inactive are the calls of the source. The calls are words filed in the database; no cut-off is given here.",
  "data": [
    {"smiles": "O=C1CCC(N2Cc3c(SCCCCCCN4CCN(C5CCN(c6ncc(C(=O)Nc7ccc(OC(F)(F)Cl)cc7)cc6-c6ccn[nH]6)CC5)CC4)cccc3C2=O)C(=O)N1", "note": "(stereo unspecified)", "values": [
      {"measurement": "inhibition", "result": "Active"}
    ]}
  ]
}
